These results are taken from patent US20250367266A1, “ORAL PHARMACEUTICAL COMPOSITION FOR PREVENTION OR TREATMENT OF OSTEOPOROSIS CONTAINING TERIPARATIDE AND METHOD FOR PREPARATION THEREOF” (ICURE BNP CO., LTD., priority 2022, published 2025).

The subject of series [1] is dexamethasone-induced mouse osteoporosis model. The experiment in a line: Serum bone formation and resorption markers and calcium. In kind it is in vivo, C57BL/6 mice. The protocol: (§1) To determine the anabolic effect of orally administered TRP/LDA/DA-DM on GC-induced osteoporosis, 9-week-old female C57BL/6 mice were randomly divided into 6 groups (n=10 per group): Control group (normal) (SC injection of normal saline once daily); Control group (DEX) (SC injection of 0.022 mg/kg DEX once daily); TRP-SC (0.02) (SC injection of 0.02 mg/kg TRP dissolved in physiological saline containing 0.022 mg/kg DEX once daily); TRP-oral (0.4) (SC injection of 0.022 mg/kg DEX dissolved in water with 0.4 mg/kg TRP orally once daily); RP (1:5:7)-15 (0.4) (once daily oral administration of TRP (1:5:7)-15 equivalent to 0.4 mg/kg TRP with SC injection of 0.022 mg/kg DEX); and TRP (1:5:7)-15 (0.8) (once daily oral administration of TRP (1:5:7)-15 equivalent to 0.8 mg/kg TRP with SC injection of 0.022 mg/kg DEX). Blood samples were collected for biochemical analysis 4 weeks after treatment.
After the final treatment once daily, serum samples were collected from mouse whole blood by centrifugation at 2000×g for 20 minutes. Then, the serum levels of osteocalcin, procollagen I N-terminal pro-peptide (PINP), and C-terminal cross-linked telopeptide of type I collagen (CTx) in each sample were determined according to the manufacturer's instructions using the Mouse Osteocalcin ELISA kit (LifeSpan BioSciences, Inc., Seattle, WA, USA), Rat/Mouse PINP EIA kit (Immunodiagnostic Systems Holdings Ltd., Tyne & Wear, UK), and RatLaps™ CTx-I EIA (Immunodiagnostic Systems Holdings Ltd.) was used to confirm each. In addition, the serum calcium level was confirmed through a colorimetric assay at 560 nm (Sigma-Aldrich).

Series [2] shares this test system. The series can be described thus: Anti-osteoporotic effect, femur micro-CT and histology. In kind it is in vivo, C57BL/6 mice. Particulars: 4 weeks. The protocol: as §1
In addition, femurs from 10 mice in each group were collected and fixed in 4% paraformaldehyde for bone density and histomorphometric analysis. The trabecular bone microstructure of the left femur was investigated using a Quantum GX micro-computed tomography (micro-CT) imaging system (PerkinElmer, Hopkinton, MA, USA) located at the Korea Institute of Basic Science (Gwangju, Korea). X-ray source settings included a voltage of 90 kV and a current of 88 uA, with a field of view of 10 mm (voxel size, 20 μm; scan time, 4 min). Three-dimensional (3D) images were obtained with 3D Viewer, an existing software in Quantum GX, and the resolution was set to 4.5 μm. After scanning, the structural parameters of the trabecular bone were analyzed using Analyze 12.0 software (Analyze Direct, Overland Park, KS, USA).
For histological observations, formalin-fixed femurs were […] in 10% ethylenediaminetetraacetic acid (EDTA) and dehydrated by passing through a graded ethanol series. Calcified femurs were then embedded in paraffin wax, cut into 5-μm-thick sections, and stained with hematoxylin and eosin (H&E). Histological sections were observed under an optical microscope (Bx41; Olympus, Tokyo, Japan), and photographs were taken focusing on the central portion of the growth plate.

Series [3] can be described thus: Particle size, PDI and zeta potential (dynamic light scattering) and TEM. In kind it is physicochemical. Particulars: dispersed in deionized water, 25° C. The protocol:
The characterization of the secondary structure of RP/LDA/DA-DM was confirmed by […] of TRP, TRP-DM, TRP/LDA/DA, and TRP/LDA/DA-DM, using 10 µM of the complex in water at 20° C. Measurements were made in the 180 to 260 nm range on a JASCO spectropolarimeter (Jasco Inc., Easton, MD, USA) using a 10 mm cuvette. All spectra were background-corrected and calculated in units of average residual ellipticity. This represents an average of 10 scan values. The optimized TRP/LDA/DA-DM [i.e., TRP (1:5:7)-15] was also characterized for average particle size, polydispersity index (PDI), and zeta potential using a dynamic light scattering analyzer (Malvern Zetasizer Nano ZS90; Malvern Instruments, Malvern, UK) at 25° C. TRP/LDA/DA-DM was dispersed in deionized water and sonicated for 1 min to minimize multi-scattering effects. In addition, morphological evaluation of the TRP formulation was performed by transmission electron microscopy (TEM). The diluted dispersion was placed on a copper grid, excess fluid was removed using filter paper, and negative staining was performed with a 2% aqueous solution of phosphortungstic acid. The prepared grids were observed by high-resolution TEM (HRTEM; JEM-200; JEOL, Tokyo, Japan).

The nature of series [4]: Oral absorption: plasma TRP pharmacokinetics. In kind it is in vivo, SD mice. Particulars: SD, mouse; for AUC(0-inf) / AUC(0-t) / Cmax / Tmax / half-life: single dose, n=5. The protocol: The oral absorption of TRP/LDA/DA-DM in mice was evaluated by determining the effectiveness of electrostatic complexes of TRP with LDA and DA and micellar formulations using DM. After fasting overnight, SD mice were orally administered 400 μL of TRP-Oral (1.6) (1.6 mg/kg TRP dissolved in water) or TRP (1:5:7)-15 (1.6) (equivalent to 1.6 mg/kg TRP). In addition, animals were injected subcutaneously with 200 μL of TRP-SC (0.04) (0.04 mg/kg TRP dissolved in physiological saline) to evaluate the relative oral bioavailability. Blood samples (250 μL) were collected in heparinized tubes (lithium heparin) from a cannulated femoral vein at specified time points (0, 0.167, 0.5, 1, 1.5, 2, 3, 4, 6 hours). Finally, plasma was separated by centrifugation (2500×g, 15 min, 4° C.) and stored at […] until analysis.
The plasma drug concentration of each sample was determined by UPLC-MS/MS. To construct a standard calibration curve, 180 μL of blank plasma was transferred to a tube, and then 10 μL of TRP at concentrations of 100, 50, 25, 10, 5, 2.5, 1, and 0 (blank) ng/ml was added to the blank plasma. To measure plasma drug concentrations after drug administration, 180 μL of mouse plasma samples at different time points were transferred to another tube, and then 10 μL hPTH (1-38) aqueous solution (100 ng/ml) (as an internal standard [IS]) was added to the TRP and blank plasma or drug-administered plasma samples. The samples were then precipitated by adding 200 μL acetonitrile containing 5% ammonium hydroxide. The precipitated sample was further diluted with 1 mL of water and centrifuged at 4° C. for 15 min at 4,000 rpm. The supernatant was extracted using the solid phase extraction (SPE) method and an Oasis® HLB uElution 96-well plate (Waters Corporation, Milford, MA, USA). Briefly, a 96-well plate was conditioned with 200 μL of methanol and then equilibrated with 200 μL of water. Four 350 μL aliquots of the supernatant were then added to each Oasis HLB uElution well. After the addition of standards or samples, the wells were washed with 200 μL of water containing 5% methanol. Then, TRP and IS were eluted with 25 μL of acetonitrile:water:trifluoroethanol:trifluoroacetic acid (60:34:5:1, v/v/v/v) mixture in two sequential aliquots. After further dilution of the eluate with 50 μL of water, 10 μL was injected into a UPLC system (Waters ACQUITY UPLC, Waters Corporation) equipped with an ACQUITY UPLC Peptide BEH C18 column (2.1×50 mm, 1.7 μm, 300 Å, Waters Corporation). The sample was placed at a low temperature of 6° C., and the column temperature was maintained at 60° C. during the analysis. Mobile phase A is composed of 0.5% (v/v) formic acid in water, and mobile phase B is composed of acetonitrile. TRP and IS were eluted at a gradient flow rate of 0.3 mL/min, where mobile phase A was equal to 85% (initial), 85% (0.8 min), 70% (1.2 min), 70% (2.2 min), 65% (2.7 min), 10% (3.0 min), 10% (4.0 min), 85% (5 min), and 85% (5 min). For ionization, a mass spectrometer (Xevo™ TO-S; Waters Corporation) was used in positive ion multiple reaction monitoring mode with electrospray voltage, source temperature, desolvation temperature, and desolvation gas flow rate of 3.0 kV, 150° C., 500° C., and 800 L/h, respectively. Quantification was performed with the transition of m/z 589.40→656.40 at 45 V cone voltage and 13 eV collision energy for TRP and m/z 744.20→855.50 at 20 V cone voltage and 20 eV collision energy for IS.

[5] abbreviates: SC 0.022 mg/kg DEX once daily, 4 weeks.
Setting [6] is: SC 0.02 mg/kg TRP once daily, 4 weeks.

The structures appear in SMILES notation. Read-outs that look alike come from different tables or passages of the source.

Take `C[C@@H]1C[C@H]2[C@@H]3CCC4=CC(=O)C=C[C@]4(C)[C@@]3(F)[C@@H](O)C[C@]2(C)[C@@]1(O)C(=O)CO` [DEX, dexamethasone]: in series [1] (setting [5]), the “serum CTx increase compared to the control (normal) group” value is given as 48.9% and the “serum PINP reduction compared to the control (normal) group” value is 26.0%. In addition, in series [2] (SC 0.022 mg/kg DEX once daily), the “BMD of the total femur” value was determined as 123 ± 7.92 mg/mL, the “SMI change compared to the control (normal) group” value was −21.1% and the “Tb.Th change compared to the control (normal) group” value is −7.98%.

With `CCCCCCCCCCCCO[C@@H]1O[C@H](CO)[C@@H](O[C@H]2O[C@H](CO)[C@@H](O)[C@H](O)[C@H]2O)[C@H](O)[C@H]1O` [DM, n-dodecyl-β-D-maltoside], in series [3], the Particle size is on record as 7.43 nm, the “Polydispersity index (PDI)” value came to 0.045 and the Zeta potential is recorded as −0.260 mV.

As a reminder, the bioavailability is dose-corrected exposure relative to a reference, in per cent. In general, AUC(0-inf) refers to the area under the concentration-time curve extrapolated to infinity. Higher therefore signals more exposure. The AUC(0-t) is the area under the concentration-time curve up to a stated or last time point. The term Cmax denotes the maximum level reached in the sampled fluid or tissue. A word on the Tmax: it is the time at which the peak concentration occurs. As a reminder, the half-life is how long it takes for the measured level to halve. Higher therefore signals slow loss. In the case of `CC[C@H](C)[C@H](NC(=O)[C@H](CCC(=O)O)NC(=O)[C@H](CO)NC(=O)[C@@H](NC(=O)[C@@H](N)CO)C(C)C)C(=O)N[C@@H](CCC(N)=O)C(=O)N[C@@H](CC(C)C)C(=O)N[C@@H](CCSC)C(=O)N[C@@H](Cc1cnc[nH]1)C(=O)N[C@@H](CC(N)=O)C(=O)N[C@@H](CC(C)C)C(=O)NCC(=O)N[C@@H](CCCCN)C(=O)N[C@@H](Cc1cnc[nH]1)C(=O)N[C@@H](CC(C)C)C(=O)N[C@@H](CC(N)=O)C(=O)N[C@@H](CO)C(=O)N[C@@H](CCSC)C(=O)N[C@@H](CCC(=O)O)C(=O)N[C@@H](CCCN=C(N)N)C(=O)N[C@H](C(=O)N[C@@H](CCC(=O)O)C(=O)N[C@@H](Cc1c[nH]c2ccccc12)C(=O)N[C@@H](CC(C)C)C(=O)N[C@@H](CCCN=C(N)N)C(=O)N[C@@H](CCCCN)C(=O)N[C@@H](CCCCN)C(=O)N[C@@H](CC(C)C)C(=O)N[C@@H](CCC(N)=O)C(=O)N[C@@H](CC(=O)O)C(=O)N[C@H](C(=O)N[C@@H](Cc1cnc[nH]1)C(=O)N[C@@H](CC(N)=O)C(=O)N[C@@H](Cc1ccccc1)C(=O)O)C(C)C)C(C)C` [TRP, Human PTH (1-34) acetate], in series [1] (setting [6]), the “PINP higher compared to the control (DEX) group” value is listed as 1.19 times, the “serum osteocalcin level higher than TRP-oral (0.4) group” value turned out to be 9.68%, the “serum osteocalcin level higher than control group (DEX)” value was 28.2% and the “serum osteocalcin level higher than control group (normal)” value stood at 18.2%. For the same molecule, the “serum calcium levels, maximum increase compared to the control (normal) group” value in series [1] (SC 0.02 mg/kg TRP, at 6 hours, day 28) is given as 21.4%. In series [1] (oral 0.4 mg/kg TRP once daily, 4 weeks), the “PINP secretion increase compared to DEX-treated mice only” value is on record as “not recovered”. The “trabecular bone microarchitecture, 3D micro-CT image of the femur” value in series [2] (SC 0.02 or oral 0.4 and 0.8 mg/kg TRP, versus control (DEX) and TRP-Oral (0.4)) was “denser trabecular bone microarchitecture”. Besides, the “trabecular bone, H&E-stained histology of distal femora” value in series [2] (SC 0.02 or oral 0.4 or 0.8 mg/kg TRP, versus control (DEX) and TRP-Oral (0.4)) was “increased structural integrity and denser trabecular bone microarchitecture”. In addition, in series [2] (SC 0.02 mg/kg TRP once daily), the “BMD higher than the DEX group” value worked out at 29.4%, the “BV/TV higher than the control (DEX) group” value is on record as 13.2%, the “Tb. Sp lower than the control (DEX) group” value is recorded as 17.4% and the “Tb.N higher than the control (DEX) group” value came out at 2.8%. Moreover, the “Tb.Th higher than the control (DEX) group” value in series [2] (SC 0.02 mg/kg TRP once daily) came out at 45.2%. For the same molecule, the “BMD higher than the control (DEX) group” value in series [2] (oral 0.4 mg/kg TRP once daily) is on record as “did not produce a significant improvement”. In addition, in series [4] (Oral, 1.6 mg/kg TRP, relative to SC 0.04 mg/kg), the bioavailability was 0.559 ± 0.293%. In series [4] (Oral, 1.6 mg/kg TRP), the AUC(0-inf) was 0.296 ± 0.0189 ng·h/mL, the AUC(0-t) was 0.135 ± 0.0704 ng·h/mL, the Cmax was determined as 0.155 ± 0.0572 ng/mL and the Tmax is 78 ± 16.2 min. This molecule also had a half-life in series [4] (Oral, 1.6 mg/kg TRP) of 43.2 ± 10.8 min. Also, the bioavailability in series [4] (SC, 0.04 mg/kg TRP (reference), read-out: Relative bioavailability) came out at 100%. Further, in series [4] (SC, 0.04 mg/kg TRP), the AUC(0-inf) came out at 0.752 ± 0.0269 ng·h/mL, the AUC(0-t) stood at 0.601 ± 0.12 ng·h/mL, the Cmax turned out to be 0.807 ± 0.135 ng/mL and the Tmax was determined as 30 min. The molecule further gave a half-life in series [4] (SC, 0.04 mg/kg TRP) of 24 min.
